Assay results: ChEMBL document CHEMBL5346899, “PKM2/PDK1 dual-targeted shikonin derivatives restore the sensitivity of EGFR-mutated NSCLC cells to gefitinib by remodeling glucose metabolism” (Eur J Med Chem, 2023)
Active and inactive are the calls of the source. No cut-off for these calls is given here.

How the values were obtained:
NCI-H1299 [1] = test: Induction of apoptosis in human NCI-H1299 cells assessed as late apoptotic cells at 500 micromol/L incubated for 24 hrs in presence of AZD7545 by Annexin V-FITC/PI staining based analysis (reference value: 2.63%); format: functional; conditions: dose 500 µmol/L, at 500 µM
NCI-H1299 [2] = test: Synergistic antiproliferative activity against human NCI-H1299 cells assessed as cell growth inhibition at 500 micromol/L incubated for 24 hrs in presence of AZD7545 by CCK-8 analysis; format: functional, cell-based; conditions: dose 500.0 µmol/L
NCI-H1299 [3] = test: Induction of apoptosis in human NCI-H1299 cells assessed as late apoptotic cells at 500 micromol/L incubated for 24 hrs by Annexin V-FITC/PI staining based analysis (reference value: 2.63%); format: functional; conditions: dose 500 µmol/L, at 500 µM
NCI-H1299 [4] = test: Induction of apoptosis in human NCI-H1299 cells assessed as dead cells at 500 micromol/L incubated for 24 hrs by Annexin V-FITC/PI staining based analysis (reference value: 0.021%); format: functional; conditions: dose 500 µmol/L, at 500 µM
NCI-H1299 [5] = test: Antitumor activity against human NCI-H1299 cells xenografted in mouse assessed as pathological damage to tumor tissue administered in presence of AZD7545; format: functional
NCI-H1299 [6] = test: Induction of apoptosis in human NCI-H1299 cells assessed as live cells at 500 micromol/L incubated for 24 hrs in presence of AZD7545 by Annexin V-FITC/PI staining based analysis (reference value: 96.6%); format: functional; conditions: dose 500 µmol/L, at 500 µM
NCI-H1299 [7] = test: Inhibition of glycolysis in human NCI-H1299 cells assessed as reduction in lactate production incubated for 1 hrs in presence of AZD7545 by colorimetric assay; format: functional, cell-based
NCI-H1299 [8] = test: Induction of apoptosis in human NCI-H1299 cells assessed as live cells at 500 micromol/L incubated for 24 hrs by Annexin V-FITC/PI staining based analysis (reference value: 96.6%); format: functional; conditions: dose 500 µmol/L, at 500 µM
NCI-H1299 [9] = test: Synergistic inhibition of NADPH production in human NCI-H1299 cells incubated for 2 hrs in presence of AZD7545 by NADP+/NADPH assay; format: functional, cell-based
NCI-H1299 [10] = test: Inhibition of glycolysis in human NCI-H1299 cells assessed as reduction in glucose consumption incubated for 24 hrs in presence of AZD7545 by colorimetric assay; format: functional, cell-based
NCI-H1299 [11] = test: Induction of apoptosis in human NCI-H1299 cells assessed as early apoptotic cells at 500 micromol/L incubated for 24 hrs by Annexin V-FITC/PI staining based analysis (reference value: 0.772%); format: functional; conditions: dose 500 µmol/L, at 500 µM
NCI-H1299 [12] = test: Induction of apoptosis in human NCI-H1299 cells assessed as early apoptotic cells at 500 micromol/L incubated for 24 hrs in presence of AZD7545 by Annexin V-FITC/PI staining based analysis (reference value: 0.772%); format: functional; conditions: dose 500 µmol/L, at 500 µM
NCI-H1299 [13] = test: Induction of apoptosis in human NCI-H1299 cells assessed as dead cells at 500 micromol/L incubated for 24 hrs in presence of AZD7545 by Annexin V-FITC/PI staining based analysis (reference value: 0.021%); format: functional; conditions: dose 500 µmol/L, at 500 µM
NCI-H1299 [14] = test: Synergistic induction of oxidative phosphorylation in human NCI-H1299 cells assessed as increase in ATP production in presence of AZD7545 by luminescence based assay; format: functional, cell-based

## Cn1c2cc([S+](C)[O-])sc2c2cnn(Cc3cccc(N)c3)c(=O)c21 (centres undefined)
NCI-H1299 [1]
  Activity: 71.7%
NCI-H1299 [2]
  Activity: Active
NCI-H1299 [3]
  Activity: 2.11%
NCI-H1299 [4]
  Activity: 0%
NCI-H1299 [5]
  Activity: Active
NCI-H1299 [6]
  Activity: 20.6%
NCI-H1299 [7]
  inhibition: Active
NCI-H1299 [8]
  Activity: 97%
NCI-H1299 [9]
  inhibition: Active
NCI-H1299 [10]
  inhibition: Active
NCI-H1299 [11]
  Activity: 0.923%
NCI-H1299 [12]
  Activity: 7.63%
NCI-H1299 [13]
  Activity: 0%
NCI-H1299 [14]
  Activity: Active
